Laboratory results as given in ChEMBL document CHEMBL1129269, “1-aryl-4-[(1-tetralinyl)alkyl]piperazines: alkylamido and alkylamino derivatives. Synthesis, 5-HT1A receptor affinity, and selectivity. 3” (J Med Chem, 1996).

Experiments:
[1] = target: T1, 5-hydroxytryptamine receptor 1A (Rattus norvegicus, UniProt P19327); assay: Binding affinity against 5-hydroxytryptamine 1A receptor in rat hippocampus membranes using [3H]8-OH-DPAT as radioligand; type: cell membranes, Membrane
T1 sequence (P19327 whole entry): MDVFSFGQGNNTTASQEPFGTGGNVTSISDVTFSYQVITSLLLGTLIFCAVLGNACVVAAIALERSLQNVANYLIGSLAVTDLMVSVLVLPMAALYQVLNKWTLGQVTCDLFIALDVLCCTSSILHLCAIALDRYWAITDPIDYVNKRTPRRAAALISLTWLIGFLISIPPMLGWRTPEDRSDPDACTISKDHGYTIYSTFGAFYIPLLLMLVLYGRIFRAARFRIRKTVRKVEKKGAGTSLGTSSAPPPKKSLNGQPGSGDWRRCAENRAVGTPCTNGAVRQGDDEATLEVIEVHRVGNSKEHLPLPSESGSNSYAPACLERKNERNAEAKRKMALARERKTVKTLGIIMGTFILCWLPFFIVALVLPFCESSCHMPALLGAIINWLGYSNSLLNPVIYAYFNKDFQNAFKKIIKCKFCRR

[2] = target: Serotonin 2 (5-HT2) receptor (Rattus norvegicus, UniProt P30994+P08909+P14842); assay: Binding affinity against 5-hydroxytryptamine 2 receptor in rat brain using [3H]ketanserin as radioligand; type: tissue-based
D(2) dopamine receptor [3] = target: T2, D(2) dopamine receptor (Rattus norvegicus, UniProt P61169); assay: Binding affinity against Dopamine receptor D2 in rat striatal membrane using [3H]spiroperidol as radioligand; type: cell membranes, Striatum
T2 sequence (P61169 whole entry): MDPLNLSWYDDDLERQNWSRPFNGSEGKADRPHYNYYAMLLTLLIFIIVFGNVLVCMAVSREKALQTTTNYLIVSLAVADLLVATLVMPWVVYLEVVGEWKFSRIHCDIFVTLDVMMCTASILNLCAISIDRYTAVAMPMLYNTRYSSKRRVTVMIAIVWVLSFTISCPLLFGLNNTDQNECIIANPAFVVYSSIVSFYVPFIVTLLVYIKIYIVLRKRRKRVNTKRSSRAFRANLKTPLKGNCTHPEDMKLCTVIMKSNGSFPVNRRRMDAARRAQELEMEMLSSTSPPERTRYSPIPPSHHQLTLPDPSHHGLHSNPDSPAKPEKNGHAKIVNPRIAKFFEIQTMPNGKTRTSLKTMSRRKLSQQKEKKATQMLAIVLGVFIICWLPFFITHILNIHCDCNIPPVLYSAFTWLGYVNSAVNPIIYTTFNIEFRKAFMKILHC

[4] = target: T3, Adrenergic receptor alpha-2 (Rattus norvegicus, UniProt P22086+P19328+P22909); assay: Binding affinity against Alpha-2 adrenergic receptor in rat brain membrane using [3H]yohimbine as radioligand; type: cell membranes
T3 sequence (P22086 whole entry): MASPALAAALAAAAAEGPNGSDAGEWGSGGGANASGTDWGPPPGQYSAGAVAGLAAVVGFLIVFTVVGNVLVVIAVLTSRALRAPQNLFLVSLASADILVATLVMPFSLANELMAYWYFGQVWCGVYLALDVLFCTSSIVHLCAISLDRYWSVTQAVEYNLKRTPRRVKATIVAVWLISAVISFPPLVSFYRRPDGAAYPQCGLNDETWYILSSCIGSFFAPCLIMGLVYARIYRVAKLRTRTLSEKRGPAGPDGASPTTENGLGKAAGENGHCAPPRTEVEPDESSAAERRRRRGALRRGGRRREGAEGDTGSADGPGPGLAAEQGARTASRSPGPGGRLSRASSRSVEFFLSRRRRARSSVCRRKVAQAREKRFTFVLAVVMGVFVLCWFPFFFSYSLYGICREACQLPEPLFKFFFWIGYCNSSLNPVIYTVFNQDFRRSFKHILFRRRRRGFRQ
T3 sequence (P19328 whole entry): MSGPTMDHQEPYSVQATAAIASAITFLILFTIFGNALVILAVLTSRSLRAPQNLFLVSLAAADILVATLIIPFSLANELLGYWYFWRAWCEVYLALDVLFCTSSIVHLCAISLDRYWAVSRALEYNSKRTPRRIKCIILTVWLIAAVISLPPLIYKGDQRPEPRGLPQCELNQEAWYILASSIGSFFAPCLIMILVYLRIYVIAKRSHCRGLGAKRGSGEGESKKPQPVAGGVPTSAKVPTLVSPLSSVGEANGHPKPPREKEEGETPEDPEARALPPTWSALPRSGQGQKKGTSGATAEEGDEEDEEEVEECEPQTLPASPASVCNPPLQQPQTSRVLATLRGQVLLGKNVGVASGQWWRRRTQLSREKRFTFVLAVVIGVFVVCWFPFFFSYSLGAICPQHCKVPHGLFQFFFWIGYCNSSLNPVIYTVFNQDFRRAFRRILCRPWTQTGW
T3 sequence (P22909 whole entry): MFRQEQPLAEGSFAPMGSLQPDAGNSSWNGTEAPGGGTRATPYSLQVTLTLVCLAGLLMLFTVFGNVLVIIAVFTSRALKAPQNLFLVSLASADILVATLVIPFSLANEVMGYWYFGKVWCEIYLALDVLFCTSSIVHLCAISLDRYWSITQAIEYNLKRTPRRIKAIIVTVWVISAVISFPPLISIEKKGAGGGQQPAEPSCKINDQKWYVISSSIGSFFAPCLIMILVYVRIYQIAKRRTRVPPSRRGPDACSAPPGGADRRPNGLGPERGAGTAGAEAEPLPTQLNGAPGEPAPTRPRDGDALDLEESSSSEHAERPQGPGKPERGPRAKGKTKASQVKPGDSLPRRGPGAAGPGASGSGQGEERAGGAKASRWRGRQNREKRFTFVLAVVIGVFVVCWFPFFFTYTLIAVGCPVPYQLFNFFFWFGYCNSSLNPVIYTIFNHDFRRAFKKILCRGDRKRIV

[5] = target: T4, Adrenergic receptor alpha-1 (Rattus norvegicus, UniProt P15823+P23944+P43140); assay: Binding affinity against Alpha-1 adrenergic receptor in rat brain membrane using [3H]prazosin as radioligand; type: cell membranes
T4 sequence (P15823 whole entry): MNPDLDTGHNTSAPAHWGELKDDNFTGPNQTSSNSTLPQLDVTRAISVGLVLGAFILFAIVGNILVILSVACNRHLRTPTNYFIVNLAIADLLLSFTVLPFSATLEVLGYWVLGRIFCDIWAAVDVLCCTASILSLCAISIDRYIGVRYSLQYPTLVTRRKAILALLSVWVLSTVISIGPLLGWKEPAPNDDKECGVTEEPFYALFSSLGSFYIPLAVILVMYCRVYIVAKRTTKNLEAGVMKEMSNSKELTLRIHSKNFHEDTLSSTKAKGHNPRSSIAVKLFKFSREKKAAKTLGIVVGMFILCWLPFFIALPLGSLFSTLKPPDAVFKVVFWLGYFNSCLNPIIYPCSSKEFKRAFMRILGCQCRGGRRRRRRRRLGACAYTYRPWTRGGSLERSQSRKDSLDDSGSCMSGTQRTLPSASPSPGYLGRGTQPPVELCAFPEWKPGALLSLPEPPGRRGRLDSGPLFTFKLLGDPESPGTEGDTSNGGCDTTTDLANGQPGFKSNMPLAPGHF
T4 sequence (P23944 whole entry): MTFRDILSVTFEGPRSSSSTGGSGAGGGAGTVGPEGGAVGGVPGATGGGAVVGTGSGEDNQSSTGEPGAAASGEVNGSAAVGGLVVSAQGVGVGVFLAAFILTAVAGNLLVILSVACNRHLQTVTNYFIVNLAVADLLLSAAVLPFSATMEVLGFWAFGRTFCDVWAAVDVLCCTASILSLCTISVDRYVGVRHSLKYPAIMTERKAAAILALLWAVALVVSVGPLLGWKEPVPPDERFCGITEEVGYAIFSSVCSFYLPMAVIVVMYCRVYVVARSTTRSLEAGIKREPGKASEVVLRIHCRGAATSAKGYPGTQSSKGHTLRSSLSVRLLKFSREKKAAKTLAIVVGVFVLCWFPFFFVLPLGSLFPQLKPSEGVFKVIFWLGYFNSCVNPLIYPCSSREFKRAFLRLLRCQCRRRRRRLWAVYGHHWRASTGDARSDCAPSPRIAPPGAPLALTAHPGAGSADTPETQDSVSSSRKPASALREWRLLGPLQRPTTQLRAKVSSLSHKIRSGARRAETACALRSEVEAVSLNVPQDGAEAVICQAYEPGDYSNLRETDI
T4 sequence (P43140 whole entry): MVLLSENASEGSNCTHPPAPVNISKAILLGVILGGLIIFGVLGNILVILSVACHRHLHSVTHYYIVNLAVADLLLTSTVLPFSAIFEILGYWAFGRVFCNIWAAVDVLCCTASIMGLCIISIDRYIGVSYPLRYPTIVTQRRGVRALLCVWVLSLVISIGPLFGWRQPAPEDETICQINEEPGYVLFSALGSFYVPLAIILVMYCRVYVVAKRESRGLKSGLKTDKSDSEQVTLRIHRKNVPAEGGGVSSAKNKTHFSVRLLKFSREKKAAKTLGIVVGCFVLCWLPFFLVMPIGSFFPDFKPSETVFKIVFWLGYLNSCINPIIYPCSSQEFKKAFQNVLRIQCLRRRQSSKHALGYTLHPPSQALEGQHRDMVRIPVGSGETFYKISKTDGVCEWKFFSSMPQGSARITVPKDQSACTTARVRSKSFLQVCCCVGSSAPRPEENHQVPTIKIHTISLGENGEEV

[6] = target: T1, 5-hydroxytryptamine receptor 1A; assay: Binding affinity against serotonin 5-hydroxytryptamine 1A receptor in rat hippocampus membrane using [3H]8-OH-DPAT as radioligand; type: cell membranes
D(2) dopamine receptor [7] = target: T2, D(2) dopamine receptor; assay: biochemical
Description: Binding affinity to rat Dopamine receptor D2 expressed in CHO cells was determined using [125 I ] iodosulpride as radioligand

| IC50 [1] [nM] | IC50 [2] [nM] | IC50 (D(2) dopamine receptor [3]) [nM] | IC50 [4] [nM] | IC50 [5] [nM] | IC50 [6] [nM] | IC50 (D(2) dopamine receptor [7]) [nM] | Compound |
| --- | --- | --- | --- | --- | --- | --- | --- |
| 116 | 1900 | 1100 | 1420 | 1150 |  |  | COc1cccc2c1CCCC2CNCCN1CCN(c2ccccc2)CC1 (stereo not drawn) |
| 311 | 1200 | 2970 | 2680 | 313 |  |  | COc1cccc2c1CCCC2NC(=O)CCN1CCN(c2ccccc2)CC1 (stereo not drawn) |
| 134 | 134 | 594 | 144 | 159 |  |  | COc1cccc2c1CCCC2C(=O)N(C)CCCN1CCN(c2ccccc2)CC1 (stereo not drawn) |
|  | > 10000 | > 10000 | > 10000 | 5980 |  |  | COc1cccc2c1CCCC2NC(=O)CN1CCN(c2ccccc2)CC1 (stereo not drawn) |
|  | 2040 | 116 | 564 | 84 | 16 |  | COc1ccccc1N1CCN(CCCNC(=O)C2CCCc3c(OC)cccc32)CC1 (stereo not drawn) |
|  | 349 | 783 | 186 | 19 | 63 |  | COc1cccc2c1CCCC2C(=O)NCCCN1CCN(c2ccccc2)CC1 (stereo not drawn) |
|  | 1560 | 4040 | 1850 | 427 | 416 |  | COc1cccc2c1CCCC2C(=O)NCCN1CCN(c2ccccc2)CC1 (stereo not drawn) |
| 307 | 1070 | 332 | 183 | 297 |  |  | COc1ccccc1N1CCN(CCN(C)C(=O)C2CCCc3c(OC)cccc32)CC1 (stereo not drawn) |
|  | 230 |  | 260 | 43 | 0.5 | 110 | COc1cccc2c1CCCC2CCCN1CCN(c2ccccc2)CC1 (stereo not drawn) |
| 53 | 2690 | 2160 | 788 | 626 |  |  | COc1cccc2c1CCCC2NCCCN1CCN(c2ccccc2)CC1 (stereo not drawn) |
| 92 | 2720 | 1200 | 310 | 790 |  |  | COc1cccc2c1CCCC2NCCN1CCN(c2ccccc2)CC1 (stereo not drawn) |
| 271 | 848 | 882 | 250 | 510 |  |  | COc1cccc2c1CCCC2C(=O)N(C)CCN1CCN(c2ccccc2)CC1 (stereo not drawn) |

The remaining lines, values behind:

| Compound | IC50 [1] [nM] | IC50 [2] [nM] | IC50 (D(2) dopamine receptor [3]) [nM] | IC50 [4] [nM] | IC50 [5] [nM] | IC50 [6] [nM] | IC50 (D(2) dopamine receptor [7]) [nM] |
| --- | --- | --- | --- | --- | --- | --- | --- |
| COc1ccccc1N1CCN(CCCNC2CCCc3c(OC)cccc32)CC1 (stereo not drawn) | 10 | 3300 | 1060 | 458 | 881 |  |  |
| COc1cccc2c1CCCC2C(=O)NCCN1CCN(c2ccccn2)CC1 (stereo not drawn) |  | 1270 | 2440 | 7220 | 838 | 173 |  |
| COc1cccc2c1CCCC2NCCN1CCN(c2ccccn2)CC1 (stereo not drawn) |  | 9140 | 1850 | 95 | 725 |  |  |
| COc1ccccc1N1CCN(CCNC(=O)C2CCCc3c(OC)cccc32)CC1 (stereo not drawn) |  | 1710 | 448 | 1380 |  | 35 |  |
| COc1ccccc1N1CCN(CCCC2CCCc3c(OC)cccc32)CC1 (stereo not drawn) |  | 330 |  | 17 | 6.5 | 0.77 |  |
| COc1ccccc1N1CCN(CCC(=O)NC2CCCc3c(OC)cccc32)CC1 (stereo not drawn) |  | 841 | 761 | 1250 | 153 |  |  |
| COc1cccc2c1CCCC2NC(=O)CCN1CCN(c2ccccn2)CC1 (stereo not drawn) | 135 | 726 | 1900 | 1330 | 534 |  |  |
| COc1cccc2c1CCCC2C(=O)NCCCN1CCN(c2ccccn2)CC1 (stereo not drawn) | 95 | 428 | 819 | 746 | 327 |  |  |
| COc1ccccc1N1CCN(CCN(C)C2CCCc3c(OC)cccc32)CC1 (stereo not drawn) | 8.7 | 1740 | 73 | 112 | 887 |  |  |
| COc1cccc2c1CCCC2CCCN1CCN(c2ccccn2)CC1 (stereo not drawn) |  | 250 |  | 48 | 66 | 0.54 | 140 |
| CCCN(CCC)C1CCc2cccc(O)c2C1 (stereo not drawn) [8-OH-DPAT] |  | > 10000 |  | 810 |  |  | 5.2 |
